Measured values reported in patent US10548861B2 (Academia Sinica, priority 2015, dated 2020).
pIC50: −log10 of the molar value. Like-named read-outs stand apart in the source and are kept apart here.

Legend:
[1] = test system: MA-10-W51 CB MLL-AF9 + Flt3ITD; test: Cytotoxicity: AML HSC-derived; format: cell-based, human; conditions: growth factor dependent MA-10-W51, FIG. 9
Source text: • a) Growth factor-dependent & cell density growth dependent cell lines. Human cord blood CD34+ cells transduced with MLL-AF9 gene: MA-10, MA-18. Human bone marrow CD34+ cells transduced with MLL-AF9 gene: MA-23. Human cord blood CD34+ cells transduced with MLL-AF9 and N-ras genes: MA-9.3, MA-9.6. • b) Growth factor independent leukemic cell lines. Human MA-10 cells transduced with Flt3 ITD (W51) were adapted to in vitro proliferation without growth factors (Moore Laboratory).

[2] = test system: 16HBE SV40+; test: cells; format: cell-based; conditions: Homo sapiens, 72 h
[3] = test system: BCI-NSI hTERT; test: 72 hr cytotoxicity: Bronchial epithelium; format: cell-based; conditions: Homo sapiens
[4] = test system: BEAS2B SV40; test: cells; format: cell-based; conditions: Homo sapiens, BEAS-2B, 72 h
[5] = test system: FTE-hTERT; test: 72 hr cytotoxicity: Fallopian epithelium; format: cell-based; conditions: Homo sapiens
[6] = test system: HS578; test: 72 hr cytotoxicity: Breast epithelium; format: cell-based; conditions: Homo sapiens, Hs578, 72 h
[7] = test system: BMEC-hTert; test: cells; format: cell-based; conditions: Homo sapiens, 72 h
[8] = test system: HUVEC; test: 72 hr cytotoxicity: Umbilical endothelium; format: cell-based; conditions: Homo sapiens, HUVEC, 72 h
[9] = test system: MS-5 (mouse); test: 72 hr cytotoxicity: Adult BM stroma; format: cell-based; conditions: MS-5 murine stroma
[10] = test system: MRC5; test: cells; format: cell-based; conditions: Homo sapiens, MRC5, 72 h
[11] = test system: IMR90; test: 72 hr cytotoxicity: fetal lung myofibroblast; format: cell-based; conditions: Homo sapiens, IMR-90, 72 h
[12] = test system: Cord Blood CFC (CFU-GM, BFU-E, CFU-C); test: cells; format: cell-based; conditions: Homo sapiens
[13] = test system: normal human, murine or primate cell and tissue types; test: MTT / alamar blue cytotoxicity on panel of normal tissues; format: cell-based; conditions: read-out: IC50 range
[14] = test system: MCL line JEKO-1 vs normal human tissues; format: cell-based
[15] = test system: normal cord blood CD34+ cells; test: Cytotoxicity on normal cord blood CD34+ cells; format: cell-based; conditions: Homo sapiens
[16] = test system: MV4;11 AML cell line vs normal human tissues; format: cell-based
[17] = test system: primary AML (AML-2) vs normal human tissues; format: cell-based
[18] = test system: primary B-ALL vs normal human tissues; format: cell-based
[19] = test system: H526 variant SCLC cell line vs normal human tissues; format: cell-based
[20] = test system: BMMSC; test: 72 hr cytotoxicity: BM Mesenchyme; format: cell-based; conditions: Homo sapiens
[21] = test system: H82; test: 72 hr cytotoxicity: SCLC variant; format: cell-based; conditions: Homo sapiens, NCI-H82
[22] = test system: H524; test: 72 hr cytotoxicity: SCLC variant; format: cell-based; conditions: Homo sapiens, NCI-H524
[23] = test system: H146; test: 72 hr cytotoxicity: SCLC classic; format: cell-based; conditions: Homo sapiens, NCI-H146
[24] = test system: H187; test: 72 hr cytotoxicity: SCLC classic; format: cell-based; conditions: Homo sapiens, NCI-H187
[25] = test system: H209; test: 72 hr cytotoxicity: SCLC classic; format: cell-based; conditions: Homo sapiens, NCI-H209
[26] = test system: H249; test: 72 hr cytotoxicity: SCLC classic; format: cell-based; conditions: Homo sapiens
[27] = test system: H417; test: 72 hr cytotoxicity: SCLC variant; format: cell-based; conditions: Homo sapiens, NCI-H417
[28] = test system: H526; test: 72 hr cytotoxicity: SCLC variant; format: cell-based; conditions: Homo sapiens, NCI-H526
[29] = test system: H562; test: 72 hr cytotoxicity: SCLC classic; format: cell-based; conditions: Homo sapiens
[30] = test system: H60; test: 72 hr cytotoxicity: SCLC classic; format: cell-based; conditions: Homo sapiens
[31] = test system: H69; test: 72 hr cytotoxicity: SCLC classic; format: cell-based; conditions: Homo sapiens, NCI-H69
[32] = test system: H678; test: 72 hr cytotoxicity: SCLC classic; format: cell-based; conditions: Homo sapiens
[33] = test system: H719; test: 72 hr cytotoxicity: SCLC classic; format: cell-based; conditions: Homo sapiens
[34] = test system: H841; test: 72 hr cytotoxicity: SCLC variant; format: cell-based; conditions: Homo sapiens, NCI-H841
[35] = test system: H889; test: 72 hr cytotoxicity: SCLC classic; format: cell-based; conditions: Homo sapiens, NCI-H889
[36] = test system: HBL2; test: Cytotoxicity: Mantle Cell Lymphoma; conditions: Homo sapiens, HBL2
[37] = test system: REC-1; test: Cytotoxicity: Mantle Cell Lymphoma; conditions: Homo sapiens, Rec1
[38] = test system: H211; test: 72 hr cytotoxicity: SCLC variant; format: cell-based; conditions: Homo sapiens, NCI-H211; read-out: IC50
[39] = test system: H128; test: 72 hr cytotoxicity: SCLC classic; format: cell-based; conditions: Homo sapiens, NCI-H128; read-out: IC50
[40] = test system: Ewing's sarcoma primary patient tumor; test: Cyclophosphamide-resistant primary Ewing's sarcoma xenograft; format: in vivo, NSG mice; conditions: cyclophosphamide 70 mg/kg i.p. x3, then BO-1055 30 mg/kg iv x4
[41] = test system: Z-138; test: Drug combination cytotoxicity with BO-1055; format: cell-based, human
[42] = test system: Granta; test: Drug combination cytotoxicity with BO-1055; format: cell-based, human
[43] = test system: REC-1; test: Drug combination cytotoxicity with BO-1055; format: cell-based, human
[44] = test system: Mino; test: Drug combination cytotoxicity with BO-1055; format: cell-based, human
[45] = test system: NECB1; test: Drug combination cytotoxicity with BO-1055; format: cell-based, human
[46] = test system: JEKO-1; test: Drug combination cytotoxicity with BO-1055; format: cell-based; conditions: Homo sapiens, JeKo-1, 72 h, read-out: IC50 single drug
[47] = test system: HBL2; test: Drug combination cytotoxicity with BO-1055; format: cell-based; conditions: Homo sapiens, HBL2, 72 h, read-out: IC50 single drug
[48] = Homo sapiens, 72 h, read-out: IC50 single drug

In the case of `CCc1c(CO)c(CO)c2n1Cc1c(c3ccccc3n1C)C2` [BO-1978], the “cytotoxicity (in words)” value [1] was “highly cytotoxic, with BO-1978 more so than BO-1055”.
`Cn1c(CCCC(=O)O)nc2cc(N(CCCl)CCCl)ccc21` [Bendamustine] was tested, and the pIC50 [2] was 5.45, the pIC50 ([3]; 72 h) was 4.07 and the pIC50 [4] was < 5.00. For the same compound, the pIC50 ([5]; 72 h) was 3.40, the pIC50 [6] was < 4.00 and the pIC50 [7] was 3.52. For the same compound, the pIC50 [8] was 3.85, the pIC50 [9] was 5.65 and the pIC50 [10] was < 4.70. The pIC50 [11] was 4.49, the pIC50 [12] was 5.00 and the pIC50 [13] was 3.40 to 4.70. For the same compound, the TW [14] was 1.60-6.36 fold and the pIC50 ([15]; 72 h) was 5.00.
Compound `N.N.[Cl][Pt][Cl]` [Cisplatin] has a pIC50 [13] of 5.39 to 5.44, a Therapeutic window ([16]; CD34+ relative to MV4;11) of 0.75 and a Therapeutic window ([16]; HUVEC relative to MV4;11) of 6.25. The Therapeutic window ([16]; NSI (Bci-NSI) relative to MV4;11) was 3.75, the Therapeutic window ([16]; huMSC relative to MV4;11) was 2.50 and the Therapeutic window ([17]; Bci- (NSI) relative to AML-2) was 0.50. The Therapeutic window ([17]; CD34+ relative to AML-2) was 0.10, the Therapeutic window ([17]; FTEC relative to AML-2) was 1.67 and the Therapeutic window ([17]; HUVEC relative to AML-2) was 0.83. For the same compound, the Therapeutic window ([17]; huMSC relative to AML-2) was 0.33, the Therapeutic window ([18]; Bci- (NSI) relative to B-ALL) was 0.50 and the Therapeutic window ([18]; CD34+ relative to B-ALL) was 0.10. The Therapeutic window ([18]; FTEC relative to B-ALL) was 20.00, the Therapeutic window ([18]; HUVEC relative to B-ALL) was 0.83 and the Therapeutic window ([18]; huMSC relative to B-ALL) was 0.33. For the same compound, the “therapeutic window (TW)” value ([19]; Bci- (NSI), normalized to 1.00 for H526) was 83.33, the “therapeutic window (TW)” value ([19]; CD34+, normalized to 1.00 for H526) was 33.33 and the “therapeutic window (TW)” value ([19]; FTEC, normalized to 1.00 for H526) was 1041.7. For the same compound, the “therapeutic window (TW)” value ([19]; H526 (reference)) was 1.00, the “therapeutic window (TW)” value ([19]; HUVEC, normalized to 1.00 for H526) was 58.33 and the “therapeutic window (TW)” value ([19]; huMSC, normalized to 1.00 for H526) was 75.00.
`COc1cc([C@@H]2c3cc4c(cc3[C@@H](O[C@@H]3O[C@@H]5CO[C@@H](C)O[C@H]5[C@H](O)[C@H]3O)[C@H]3COC(=O)[C@H]23)OCO4)cc(OC)c1O` [Etoposide] was tested, and the pIC50 ([3]; 72 h) was 6.30, the pIC50 ([5]; 72 h) was 3.70 and the pIC50 ([20]; 72 h) was 4.15. The pIC50 [21] was 5.01, the pIC50 [22] was 5.85 and the pIC50 [23] was 5.54. For the same compound, the pIC50 [24] was 6.22, the pIC50 [25] was 6.30 and the pIC50 [26] was 5.39. The pIC50 [27] was 5.43, the pIC50 [28] was 6.10 and the pIC50 [29] was 5.26. For the same compound, the pIC50 [30] was ≤ 4.70, the pIC50 [31] was 6.40 and the pIC50 [32] was 6.51. For the same compound, the pIC50 [33] was ≤ 5.00, the pIC50 [34] was 6.22 and the pIC50 [35] was 5.85. The pIC50 ([15]; 72 h) was 7.05.
Compound `CC(=O)O[C@H]1C(=O)[C@@]2(C)[C@H]([C@H](OC(=O)c3ccccc3)[C@]3(O)C[C@H](OC(=O)[C@H](O)[C@@H](NC(=O)c4ccccc4)c4ccccc4)C(C)=C1C3(C)C)[C@]1(OC(C)=O)CO[C@@H]1C[C@@H]2O` [Paclitaxel] has a pIC50 [36] of 7.80 and a pIC50 [37] of 7.68.
Compound `Cc1[nH]c2ccccc2c1CCNCc1ccc(/C=C/C(=O)NO)cc1` [Panobinostat] has a pIC50 [36] of 7.89 and a pIC50 [37] of 7.22.
`CC[C@]1(O)C[C@H]2CN(CCc3c([nH]c4ccccc34)[C@@](C(=O)OC)(c3cc4c(cc3OC)N(C=O)[C@H]3[C@@](O)(C(=O)OC)[C@H](OC(C)=O)[C@]5(CC)C=CCN6CC[C@]43[C@@H]65)C2)C1` [Vincristine] was tested, and the pIC50 ([3]; Bci-NSI hTERT immortalized lung bronchus epithelium, 72 hr, read-out: IC50) was 3.70, the pIC50 ([5]; FTEC Fallopian tube epithelium, 72 hr, read-out: IC50) was 3.60 and the pIC50 ([20]; HuMSC bone marrow mesenchymal stem cells, 72 hr, read-out: IC50) was 5.20. The pIC50 ([21]; read-out: IC50) was 8.15, the pIC50 [38] was 8.70 and the pIC50 ([22]; read-out: IC50) was 9.00. For the same compound, the pIC50 [39] was 8.30, the pIC50 ([23]; read-out: IC50) was 5.54 and the pIC50 ([24]; read-out: IC50) was 9.00. The pIC50 ([25]; read-out: IC50) was 9.00, the pIC50 ([26]; H249, read-out: IC50) was 9.00 and the pIC50 ([27]; read-out: IC50) was 8.70. The pIC50 ([28]; read-out: IC50) was 6.87, the pIC50 ([29]; H562, read-out: IC50) was 9.00 and the pIC50 ([30]; H60, read-out: IC50) was 8.70. The pIC50 ([31]; read-out: IC50) was 8.52, the pIC50 ([32]; H678, read-out: IC50) was 8.70 and the pIC50 ([33]; H719, read-out: IC50) was 8.70. For the same compound, the pIC50 ([34]; read-out: IC50) was 8.70, the pIC50 ([35]; read-out: IC50) was 9.00 and the Therapeutic window [16] was 1.00. The pIC50 ([15]; CD34 (cord blood hematopoietic progenitors), 72 hr, read-out: IC50) was 5.63.
For `O=P1(N(CCCl)CCCl)NCCCO1` (stereo not shown) [cyclophosphamide], the tumor response [40] was “Tumor growth was not inhibited”.
With `CC(C)C[C@H](NC(=O)[C@H](Cc1ccccc1)NC(=O)c1cnccn1)B(O)O` [velcade, Bortezomib] the “interaction with BO-1055 (combo-1, combo-2)” value (“interaction” below) [41] was “synergistic cytotoxic with both combinations”, the pIC50 ([41]; Homo sapiens, Z-138, 72 h, read-out: IC50 single drug) was 8.10 and the “interaction” value [42] was “synergistic with combo-1 and antagonistic with combo-2”. For the same compound, the pIC50 [42, 48] was 8.10, the “interaction” value [43] was “antagonistic in both combinations” and the pIC50 ([43]; Homo sapiens, Rec1, 72 h, read-out: IC50 single drug) was 8.10. For the same compound, the “interaction” value [44] was “synergistic cytotoxic with both combinations”, the pIC50 ([44]; Homo sapiens, MINO, 72 h, read-out: IC50 single drug) was 7.40 and the “interaction” value [45] was “synergistic with combo-1 and antagonistic with combo-2”. It also gave a pIC50 [45, 48] of 6.86, a pIC50 [46] of 7.82 and a pIC50 [47] of 8.30.
